System: hepatocytes
Assay: Seq-Well scRNA-Seq of hepatocytes after APAP overdose (signature scores, DEG vs untreated)
Assay type: in vivo, mouse
[1] = time point A24 vs untreated (UT)

SMILES: CC(=O)Nc1ccc(O)cc1 [APAP, acetaminophen]
- Psme4 pct.1 (time point A24): 0.58
- Ptprf pct.1 (time point A24): 0.588
- Raf13 pct.1 (time point A24): 0.612
- Ranbp2 pct.1 (time point A24): 0.484
- Rarres2 pct.1 (time point A24): 0.83
- Rpl13 pct.1 (time point A24): 0.306
- Rplp1 pct.1 (time point A24): 0.597
- Rps9 pct.1 (time point A24): 0.519
- Rps15 pct.1 (time point A24): 0.379
- Sbno1 pct.1 (time point A24): 0.36
- Sc4mol pct.1 (time point A24): 0.5
- Sco2 pct.1 (time point A24): 0.346
- Sec31a pct.1 (time point A24): 0.462
- Selenbp1 pct.1 (time point A24): 0.563
- Sh3bgrl pct.1 (time point A24): 0.512
- Slc38a10 pct.1 (time point A24): 0.449
- Slc39a14 pct.1 (time point A24): 0.495
- Srebf1 pct.1 (time point A24): 0.439
- Srp72 pct.1 (time point A24): 0.597
- Srpr pct.1 (time point A24): 0.532
- Stat3 pct.1 (time point A24): 0.459
- Stt3b pct.1 (time point A24): 0.485
- Surf4 pct.1 (time point A24): 0.656
- Tmem243 pct.1 (time point A24): 0.407
- Tob1 pct.1 (time point A24): 0.565
- Trib1 pct.1 (time point A24): 0.455
- Trip12 pct.1 (time point A24): 0.504
- Txndc5 pct.1 (time point A24): 0.48
- Txnrd1 pct.1 (time point A24): 0.564
- Uggt1 pct.1 (time point A24): 0.385
- Uqcr11 pct.1 (time point A24): 0.769
- Vkorc1 pct.1 (time point A24): 0.38
- Xiap pct.1 (time point A24): 0.504
- Zbtb20 pct.1 (time point A24): 0.566
- Adck3 avg_logFC [1]: −0.2825
- Arhgap5 avg_logFC [1]: 0.2952
- Arhgef12 avg_logFC [1]: 0.3047
- Arl5a avg_logFC [1]: 0.2648
- Atp1a1 avg_logFC [1]: 0.27
- Atp5e avg_logFC [1]: −0.3136
- Atp5f1 avg_logFC [1]: −0.2872
- Atp6v1f avg_logFC [1]: −0.2529
- Atp11c avg_logFC [1]: 0.2605
- Atp13a3 avg_logFC [1]: 0.3037
- Azin1 avg_logFC [1]: 0.2701
- Bnip3 avg_logFC [1]: −0.2928
- Brd2 avg_logFC [1]: 0.2664
- Bzw1 avg_logFC [1]: 0.2841
- Cald1 avg_logFC [1]: 0.2589
- Caprin1 avg_logFC [1]: 0.2628
- Ces3b avg_logFC [1]: −0.2867
- Copb2 avg_logFC [1]: 0.2839
- Copz1 avg_logFC [1]: 0.2577
- Cox7b avg_logFC [1]: −0.2674
- Cpne3 avg_logFC [1]: 0.258
- Ctnnb1 avg_logFC [1]: 0.2957
- Cyp4a14 avg_logFC [1]: −0.3729
- Cyp27a1 avg_logFC [1]: −0.2516
- Ddost avg_logFC [1]: 0.2504
- Dennd5b avg_logFC [1]: 0.2935
- Deptor avg_logFC [1]: 0.2606
- Dnajb9 avg_logFC [1]: 0.2586
- Dnajb11 avg_logFC [1]: 0.3154
- Eci1 avg_logFC [1]: −0.2764
- Edem1 avg_logFC [1]: 0.2869
- Ehhadh avg_logFC [1]: −0.2505
- Eif4b avg_logFC [1]: 0.256
- Ell2 avg_logFC [1]: 0.2881
- Eprs avg_logFC [1]: 0.3013
- Erbb2ip avg_logFC [1]: 0.2797
- Erp44 avg_logFC [1]: 0.2795
- Esd avg_logFC [1]: −0.2538
- Fam120a avg_logFC [1]: 0.28
- Fasn avg_logFC [1]: 0.2914
- Fcgrt avg_logFC [1]: −0.2693
- Gch1 avg_logFC [1]: −0.2825
- Gm23935 avg_logFC [1]: 0.7213
- Gm24245 avg_logFC [1]: 0.4242
- Golga4 avg_logFC [1]: 0.2718
- Gpam avg_logFC [1]: 0.2504
- Grlf1 avg_logFC [1]: 0.295
- Gstm3 avg_logFC [1]: −0.3186
- H6pd avg_logFC [1]: 0.2614
- Id3 avg_logFC [1]: −0.3511
- Ide avg_logFC [1]: 0.2517
- Iqgap2 avg_logFC [1]: 0.2547
- Ireb2 avg_logFC [1]: 0.2657
- Jak1 avg_logFC [1]: 0.2541
- Lasp1 avg_logFC [1]: 0.253
- Lgr4 avg_logFC [1]: 0.269
- Lpin2 avg_logFC [1]: 0.2776
- Macf1 avg_logFC [1]: 0.2617
- Magt1 avg_logFC [1]: 0.2633
- Man2a1 avg_logFC [1]: 0.2833
- Mbnl1 avg_logFC [1]: 0.2502
- Met avg_logFC [1]: 0.2883
- Mt1 avg_logFC [1]: −0.3482
- Mtss1 avg_logFC [1]: 0.2876
- Nadk2 avg_logFC [1]: 0.2579
- Narf avg_logFC [1]: 0.2629
- Ndufa6 avg_logFC [1]: −0.3068
- Ndufb6 avg_logFC [1]: −0.3064
- Ndufc2 avg_logFC [1]: −0.308
- Nop10 avg_logFC [1]: −0.2649
- Nr1i3 avg_logFC [1]: −0.2821
- Nrp1 avg_logFC [1]: 0.3341
- Osbp19 avg_logFC [1]: 0.2788
- Osbpl1a avg_logFC [1]: 0.2728
- Ostc avg_logFC [1]: 0.2658
- Pik3c2a avg_logFC [1]: 0.2594
- Plin5 avg_logFC [1]: −0.2778
- Prdx4 avg_logFC [1]: −0.3074
- Prdx5 avg_logFC [1]: −0.2609
- Prkaa2 avg_logFC [1]: 0.2636
- Prox1 avg_logFC [1]: 0.2663
- Proz avg_logFC [1]: 0.2632
- Psme4 avg_logFC [1]: 0.2626
- Ptprf avg_logFC [1]: 0.3071
- Raf13 avg_logFC [1]: 0.2553
- Ranbp2 avg_logFC [1]: 0.2659
- Rarres2 avg_logFC [1]: −0.2666
- Rpl13 avg_logFC [1]: −0.2997
- Rplp1 avg_logFC [1]: −0.2866
- Rps9 avg_logFC [1]: −0.314
- Rps15 avg_logFC [1]: −0.3561
- Sbno1 avg_logFC [1]: 0.2505
- Sc4mol avg_logFC [1]: −0.2735
- Sco2 avg_logFC [1]: −0.2929
- Sec31a avg_logFC [1]: 0.263
- Selenbp1 avg_logFC [1]: −0.28
- Sh3bgrl avg_logFC [1]: 0.2513
- Slc38a10 avg_logFC [1]: 0.2855
- Slc39a14 avg_logFC [1]: 0.323
- Srebf1 avg_logFC [1]: 0.2762
- Srp72 avg_logFC [1]: 0.3107
- Srpr avg_logFC [1]: 0.3052
- Stat3 avg_logFC [1]: 0.2974
- Stt3b avg_logFC [1]: 0.3194
- Surf4 avg_logFC [1]: 0.2586
- Tmem243 avg_logFC [1]: −0.2656
- Tob1 avg_logFC [1]: 0.3129
- Trib1 avg_logFC [1]: 0.2875
- Trip12 avg_logFC [1]: 0.3283
- Txndc5 avg_logFC [1]: 0.2901
- Uggt1 avg_logFC [1]: 0.2845
- Uqcr11 avg_logFC [1]: −0.2632
- Vkorc1 avg_logFC [1]: −0.2974
- Xiap avg_logFC [1]: 0.2602
- Zbtb20 avg_logFC [1]: 0.3791
- pct.1 Acsl1 (time point A48A96): 0.977
- pct.1 Aldh3a2 (time point A48A96): 0.592
- pct.1 Atp1a1 (time point A48A96): 0.701
- pct.1 Atp5d (time point A48A96): 0.866
- pct.1 C6 (time point A48A96): 0.653
- pct.1 Ces1e (time point A48A96): 0.791
- pct.1 Ctsd (time point A48A96): 0.831
- pct.1 Cyp4a12a (time point A48A96): 0.509
- pct.1 Ech1 (time point A48A96): 0.951
- pct.1 F5 (time point A48A96): 0.881
- pct.1 F9 (time point A48A96): 0.836
- pct.1 F12 (time point A48A96): 0.922
- pct.1 Fcgrt (time point A48A96): 0.806
- pct.1 Fn1 (time point A48A96): 0.932
- pct.1 Ftl1 (time point A48A96): 0.438
- pct.1 Gabarapl1 (time point A48A96): 0.917
- pct.1 Gclm (time point A48A96): 0.893
- pct.1 Glul (time point A48A96): 0.257
- pct.1 Gm4076 (time point A48A96): 0.047
- pct.1 Gm20594 (time point A48A96): 0.222
- pct.1 Gsta2 (time point A48A96): 0.583
- pct.1 Hadha (time point A48A96): 0.895
- pct.1 Hal (time point A48A96): 0.824
- pct.1 Hgfac (time point A48A96): 0.682
- pct.1 Hsd17b4 (time point A48A96): 0.943
- pct.1 Ifitm3 (time point A48A96): 0.823
- pct.1 Inmt (time point A48A96): 0.935
- pct.1 Lpgat1 (time point A48A96): 0.747
- pct.1 Lpin1 (time point A48A96): 0.515
- pct.1 Ndufb2 (time point A48A96): 0.814
- pct.1 Park7 (time point A48A96): 0.902
- pct.1 Pck1 (time point A48A96): 0.998
- pct.1 Pipox (time point A48A96): 0.774
- pct.1 Ppp2r5a (time point A48A96): 0.803
- pct.1 Ptms (time point A48A96): 0.857
- pct.1 Rarres1 (time point A48A96): 0.327
- pct.1 Rpl32 (time point A48A96): 0.766
- pct.1 Rpl41 (time point A48A96): 0.304
- pct.1 Sardh (time point A48A96): 0.939
- pct.1 Sdhd (time point A48A96): 0.837
- pct.1 Sds (time point A48A96): 0.671
- pct.1 Sec61a1 (time point A48A96): 0.7
- pct.1 Serpina12 (time point A48A96): 0.38
- pct.1 Sfxn1 (time point A48A96): 0.702
- pct.1 Slc2a2 (time point A48A96): 0.716
- pct.1 Slc37a4 (time point A48A96): 0.717
- pct.1 Tmem106b (time point A48A96): 0.787
- pct.1 Ubb (time point A48A96): 0.465
- pct.1 Ubxn4 (time point A48A96): 0.802
- pct.1 Upb1 (time point A48A96): 0.895
- pct.1 Usmg5 (time point A48A96): 0.677
- pct.1 mmu-mir-6236 (time point A48A96): 0.859
- pct.1 mt-Atp6 (time point A48A96): 0.326
